For experiment [1], the target named is T1, Histo-blood group ABO system transferase (Homo sapiens, UniProt P16442).
T1 sequence (P16442 whole entry): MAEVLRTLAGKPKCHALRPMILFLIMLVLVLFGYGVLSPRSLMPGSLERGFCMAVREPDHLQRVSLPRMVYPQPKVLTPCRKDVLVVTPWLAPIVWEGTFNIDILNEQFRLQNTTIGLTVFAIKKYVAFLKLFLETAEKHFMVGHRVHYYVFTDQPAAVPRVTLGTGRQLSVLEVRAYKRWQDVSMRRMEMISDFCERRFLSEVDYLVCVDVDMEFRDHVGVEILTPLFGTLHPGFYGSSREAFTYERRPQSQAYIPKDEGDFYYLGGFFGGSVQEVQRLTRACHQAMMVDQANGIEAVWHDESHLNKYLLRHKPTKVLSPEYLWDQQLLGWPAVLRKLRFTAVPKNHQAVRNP
In words: Inhibition of human blood group B Galactosyltransferase using radiolabeled UDP-Gal as substrate in presence of manganese ions.

Experiment [2] has as its target T1, Histo-blood group ABO system transferase. In words: Inhibition of human blood group B Galactosyltransferase using UDP-Gal as substrate by STD NMR analysis in presence of magnesium ions.
The nature of experiment [3]: (§1) Competitive inhibition of human blood group A N-acetylgalactosaminyltransferase using UDP-GalNac as substrate in presence of magnesium ions.
For experiment [4], the target named is T1, Histo-blood group ABO system transferase. In words: Binding affinity to human blood group B Galactosyltransferase after 300 secs by SPR analysis. A general note: Surface plasmon resonance follows binding to a sensor surface in real time, without labels.
Experiment [5] deals with T2, Beta-1,4-galactosyltransferase 1 (Bos taurus) (UniProt P08037).
T2 sequence (whole entry): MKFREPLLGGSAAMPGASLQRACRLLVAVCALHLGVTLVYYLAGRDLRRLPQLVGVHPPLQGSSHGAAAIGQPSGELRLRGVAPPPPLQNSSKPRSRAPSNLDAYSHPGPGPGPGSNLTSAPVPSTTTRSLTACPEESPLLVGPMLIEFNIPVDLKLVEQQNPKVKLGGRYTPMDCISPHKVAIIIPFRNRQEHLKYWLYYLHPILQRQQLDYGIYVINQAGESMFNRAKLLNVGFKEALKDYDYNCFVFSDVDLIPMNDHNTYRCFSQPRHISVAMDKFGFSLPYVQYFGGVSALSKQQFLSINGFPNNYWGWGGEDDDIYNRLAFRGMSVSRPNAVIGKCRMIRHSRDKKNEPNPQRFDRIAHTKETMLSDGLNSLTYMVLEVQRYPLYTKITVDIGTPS
Nature of the experiment: Binding affinity to bovine beta-1,4-galactosyltransferase 1 using UDP-Gal as substrate at 1.5 mM after 15 hrs by NMR spectroscopic analysis in presence of magnesium ions.

Experiment [6] has as its target T1, Histo-blood group ABO system transferase. In words: Binding affinity to human blood group B Galactosyltransferase by STD NMR analysis in presence of magnesium ions.
The species entered for another experiment is Homo sapiens. The description is as §1.
Experiment [7] has as its target T1, Histo-blood group ABO system transferase. In words: Competitive inhibition of human blood group B Galactosyltransferase using UDP-Gal as substrate by Michaelis-Menten equation analysis in presence of magnesium ions.

The source made the active and inactive calls. The calls are words filed in the database; no cut-off is given here.

For the compound `O=c1[nH]c(=O)c2[nH]c(=O)n(C[C@H](O)[C@H](O)[C@H](O)CO)c2[nH]1`, the figures for the inhibition constant Ki in experiment [1], in experiment [2] and in experiment [3] were 1500 µM, 361 µM and 712 µM, respectively.

As to `O=c1[nH]c(=O)c2[nH]c(=O)n(C[C@@H](O)[C@H](O)[C@H](O)CO)c2[nH]1`, in experiment [4], the dissociation constant (Kd) – broadly, the concentration at which binding is half-saturated – was 2300 µM. Moreover, the inhibitory constant (Ki) (as a rule, the dissociation constant of the complex between target and ligand, obtained from inhibition or displacement) in experiment [1] turned out to be 2200 µM; in experiment [2] it was 571 µM; in experiment [3], 1100 µM.

Turning to `O=c1[nH]c(=O)c2[nH]c(=O)n(C[C@@H](O)[C@H](O)[C@H](O)CO[C@H]3O[C@H](CO)[C@H](O)[C@H](O)[C@H]3O)c2[nH]1`, the Kd in experiment [4] was 254 µM; in experiment [6] it was 182 µM. Further, the 50% inhibitory concentration (IC50) (usually the midpoint of a concentration-inhibition curve) in experiment [1] was 1600 µM; in experiment [2], 389 µM. Besides, the figures for the Ki in experiment [1], in experiment [2] and in experiment [7] were 1500 µM, 117 µM and 565 µM, respectively. For the same compound, in experiment [5], the inhibition result was “Active”. In the experiment filed under Homo sapiens, the inhibition result was “inactive”.

Source of the values: ChEMBL document CHEMBL2321747, “A nonionic inhibitor with high specificity for the UDP-Gal donor binding site of human blood group B galactosyltransferase: design, synthesis, and characterization” (J Med Chem, 2013).
